In ChEMBL document CHEMBL1132161, “Therapeutic potential and strategies for inhibiting tumor necrosis factor-alpha” (J Med Chem, 1999) one finds IC50 data, which are given here for one compound.

A word on the pIC50: it is the negative decadic logarithm of the IC50, by convention in mol/L. Low readings indicate a high IC50, high ones a low IC50.

pIC50: −log10 of the molar value.

The assay can be described thus: Compound was tested for the inhibition of IL1-beta and interleukin-6-production. It is filed as functional.

The compound `Nc1ncnc2c1ncn2[C@@H]1CC[C@@H](O)C1` had a negative logarithm of the IC50 (pIC50) of 5.05.
